ChEMBL document CHEMBL1201862, “PubChem BioAssay data set” (2004)
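Compound exposure: 48 hours, 5 concentrations, 96-well plates. GI50 marks 50% less growth.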 Activity calls are given as the source filed them. Rule as the data show it: active = GI50 up to about 1.1 µM and inactive = higher.

What was measured:
Assay in all cases: NCI tumour cell line growth inhibition, 48 h
SNB-78 = test system: SNB-78
M19-MEL = test system: M19-MEL
DMS-273 = test system: DMS-273
UO-31 = test system: UO-31
OVCAR-3 = test system: OVCAR-3
U-251 = test system: U-251
UACC-257 = test system: UACC-257
SF-268 = test system: SF-268
NCI-H522 = test system: NCI-H522
COLO 205 = test system: COLO 205
HOP-18 = test system: HOP-18
SR = test system: SR
LXFL 529 = test system: LXFL 529
DMS-114 = test system: DMS-114
NCI-H460 = test system: NCI-H460
ACHN = test system: ACHN
OVCAR-4 = test system: OVCAR-4
TK-10 = test system: TK-10
EKVX = test system: EKVX
CAKI-1 = test system: CAKI-1
SF-539 = test system: SF-539
M14 = test system: M14
K562 = test system: K562
NCI-H226 = test system: NCI-H226
UACC-62 = test system: UACC-62
A549 = test system: A549
CCRF-CEM = test system: CCRF-CEM
786-0 = test system: 786-0
SNB-19 = test system: SNB-19
NCI-H23 = test system: NCI-H23
HOP-92 = test system: HOP-92
RPMI-8226 = test system: RPMI-8226
SF-295 = test system: SF-295
HCC 2998 = test system: HCC 2998
HOP-62 = test system: HOP-62
MOLT-4 = test system: MOLT-4
SN12C = test system: SN12C
A498 = test system: A498
SW-620 = test system: SW-620
DLD-1 = test system: DLD-1
SNB-75 = test system: SNB-75
SK-MEL-2 = test system: SK-MEL-2
HT-29 = test system: HT-29
OVCAR-5 = test system: OVCAR-5
IGROV-1 = test system: IGROV-1
Malme-3M = test system: Malme-3M
OVCAR-8 = test system: OVCAR-8
HCT-15 = test system: HCT-15
SK-OV-3 = test system: SK-OV-3
KM12 = test system: KM12
SK-MEL-5 = test system: SK-MEL-5
SK-MEL-28 = test system: SK-MEL-28
HCT-116 = test system: HCT-116
KM-20L2 = test system: KM-20L2
RXF 393 = test system: RXF 393
LOX IMVI = test system: LOX IMVI
HL-60 = test system: HL-60
XF498 = test system: XF498

Measured: GI50

CCCN(CCC)CCc1cc(C(C)=O)n(S(=O)(=O)c2ccc(C)cc2)c1
inactive: SNB-78 > 100 µM | M19-MEL > 100 µM | DMS-273 > 100 µM | UO-31 83.2 µM | OVCAR-3 > 100 µM | U-251 > 100 µM | UACC-257 54.6 µM | SF-268 > 100 µM | NCI-H522 > 100 µM | COLO 205 > 100 µM | HOP-18 > 100 µM | SR > 100 µM | LXFL 529 > 100 µM | DMS-114 > 100 µM | NCI-H460 > 100 µM | ACHN > 100 µM | OVCAR-4 > 100 µM | TK-10 > 100 µM | EKVX > 100 µM | CAKI-1 84.7 µM | SF-539 > 100 µM | M14 20.3 µM | K562 80.9 µM | NCI-H226 > 100 µM | UACC-62 > 100 µM | A549 > 100 µM | CCRF-CEM > 100 µM | 786-0 > 100 µM | SNB-19 > 100 µM | NCI-H23 > 100 µM | HOP-92 > 100 µM | RPMI-8226 > 100 µM | SF-295 > 100 µM | HCC 2998 > 100 µM | HOP-62 > 100 µM | MOLT-4 > 100 µM | SN12C > 100 µM | A498 > 100 µM | SW-620 > 100 µM | DLD-1 > 100 µM | SNB-75 > 100 µM | SK-MEL-2 > 100 µM | HT-29 45.6 µM | OVCAR-5 > 100 µM | IGROV-1 > 100 µM | Malme-3M > 100 µM | OVCAR-8 > 100 µM | SK-OV-3 > 100 µM | KM12 > 100 µM | SK-MEL-5 41.4 µM | SK-MEL-28 > 100 µM | HCT-116 > 100 µM
> 100 µM: HCT-15

CCOC(=O)c1c(-c2[nH]c(C(=O)OCc3ccccc3)c(C)c2C(=O)OCC)[nH]c(C(=O)OCc2ccccc2)c1C
inactive: SNB-78 67 µM | M19-MEL > 100 µM | DMS-273 > 100 µM | UO-31 > 100 µM | OVCAR-3 > 100 µM | U-251 36 µM | SF-268 > 100 µM | KM-20L2 > 100 µM | NCI-H522 > 100 µM | COLO 205 > 100 µM | HOP-18 > 100 µM | SR > 100 µM | LXFL 529 > 100 µM | DMS-114 > 100 µM | NCI-H460 > 100 µM | ACHN 58.2 µM | TK-10 > 100 µM | EKVX > 100 µM | CAKI-1 > 100 µM | SF-539 48.4 µM | M14 > 100 µM | NCI-H226 > 100 µM | RXF 393 19.9 µM | UACC-62 > 100 µM | A549 > 100 µM | 786-0 92 µM | HOP-92 55.2 µM | RPMI-8226 > 100 µM | SF-295 > 100 µM | HCC 2998 > 100 µM | HOP-62 > 100 µM | MOLT-4 > 100 µM | SN12C > 100 µM | A498 > 100 µM | SW-620 > 100 µM | DLD-1 > 100 µM | SNB-75 29 µM | SK-MEL-2 > 100 µM | HT-29 > 100 µM | OVCAR-5 > 100 µM | LOX IMVI > 100 µM | IGROV-1 > 100 µM | Malme-3M > 100 µM | OVCAR-8 > 100 µM | SK-OV-3 > 100 µM | SK-MEL-5 > 100 µM | SK-MEL-28 > 100 µM | HCT-116 > 100 µM
> 100 µM: HCT-15

CC(C)OP(=O)(OC(C)C)/C(=N/Nc1ccc([N+](=O)[O-])cc1)Nc1ccccc1
inactive: SNB-78 17.5 µM | M19-MEL 47.2 µM | DMS-273 25.3 µM | UO-31 77.3 µM | OVCAR-3 32.2 µM | U-251 21.2 µM | UACC-257 21 µM | SF-268 25 µM | KM-20L2 24.2 µM | NCI-H522 17.9 µM | COLO 205 21.6 µM | SR 16.6 µM | LXFL 529 19.5 µM | DMS-114 20.4 µM | NCI-H460 33 µM | ACHN 24.8 µM | OVCAR-4 28.4 µM | TK-10 12.4 µM | EKVX 35.1 µM | CAKI-1 34.7 µM | HL-60 18.2 µM | SF-539 33.9 µM | M14 20.2 µM | K562 21.1 µM | NCI-H226 16.4 µM | UACC-62 10.8 µM | A549 23.1 µM | CCRF-CEM 18.4 µM | 786-0 24.1 µM | SNB-19 36.7 µM | NCI-H23 26.2 µM | HOP-92 17.5 µM | RPMI-8226 20.3 µM | HCC 2998 49.5 µM | HOP-62 29.7 µM | MOLT-4 10.7 µM | SN12C 48.6 µM | XF498 22.2 µM | A498 > 10 µM | SW-620 33 µM | DLD-1 28.1 µM | SNB-75 36.6 µM | SK-MEL-2 40.1 µM | OVCAR-5 > 100 µM | LOX IMVI 33.7 µM | Malme-3M 19.8 µM | OVCAR-8 34.8 µM | KM12 20.8 µM | SK-MEL-5 12.2 µM | SK-MEL-28 23.9 µM | HCT-116 16.4 µM
32.4 µM: HCT-15
